Active and inactive are the calls of the source. The rule behind the calls is not given here.
What was measured:
Type in all cases: cell-based
[1] = biological target: T1, Somatostatin receptor type 2 (Homo sapiens, UniProt P30874); assay: Displacement of [125I]-[LTT]-SS28 from human SST2 receptor expressed in Chinese hamster CCL-39 cells after 2 hrs by autoradiographic analysis
[2] = biological target: Somatostatin receptor type 5 (Homo sapiens, UniProt P35346); assay: Displacement of [125I]-[LTT]-SS28 from human SST5 receptor expressed in HEK293 cells after 2 hrs by autoradiographic analysis
[3] = biological target: Somatostatin receptor type 1 (Homo sapiens, UniProt P30872); assay: Displacement of [125I]-[LTT]-SS28 from human SST1 receptor expressed in CHO cells after 2 hrs by autoradiographic analysis
[4] = biological target: T1, Somatostatin receptor type 2; assay: Agonist activity at T7-epitope-tagged human SST2A receptor expressed in HEK293 cells assessed as stimulation of receptor internalization at 1 uM after 30 mins by immunofluorescence microscopic analysis
[5] = biological target: Somatostatin receptor type 4 (Homo sapiens, UniProt P31391); assay: Displacement of [125I]-[LTT]-SS28 from human SST4 receptor expressed in Chinese hamster CCL-39 cells after 2 hrs by autoradiographic analysis
[6] = biological target: Somatostatin receptor type 3 (Homo sapiens, UniProt P32745); assay: Displacement of [125I]-[LTT]-SS28 from human SST3 receptor expressed in Chinese hamster CCL-39 cells after 2 hrs by autoradiographic analysis
Chain of Somatostatin receptor type 3 (P32745 whole entry): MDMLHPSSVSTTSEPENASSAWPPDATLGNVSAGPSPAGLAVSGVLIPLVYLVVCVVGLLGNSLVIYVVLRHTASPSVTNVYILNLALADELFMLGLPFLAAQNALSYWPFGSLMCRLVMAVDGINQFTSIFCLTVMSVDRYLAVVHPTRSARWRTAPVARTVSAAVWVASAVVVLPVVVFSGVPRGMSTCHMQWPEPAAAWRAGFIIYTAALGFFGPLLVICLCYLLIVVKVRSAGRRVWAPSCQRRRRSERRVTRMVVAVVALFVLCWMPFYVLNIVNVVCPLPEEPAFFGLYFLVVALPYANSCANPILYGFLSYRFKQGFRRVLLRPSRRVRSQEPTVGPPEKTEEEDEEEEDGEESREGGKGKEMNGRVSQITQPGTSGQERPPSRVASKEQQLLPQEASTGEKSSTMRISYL

Chain of Somatostatin receptor type 1 (P30872 whole entry): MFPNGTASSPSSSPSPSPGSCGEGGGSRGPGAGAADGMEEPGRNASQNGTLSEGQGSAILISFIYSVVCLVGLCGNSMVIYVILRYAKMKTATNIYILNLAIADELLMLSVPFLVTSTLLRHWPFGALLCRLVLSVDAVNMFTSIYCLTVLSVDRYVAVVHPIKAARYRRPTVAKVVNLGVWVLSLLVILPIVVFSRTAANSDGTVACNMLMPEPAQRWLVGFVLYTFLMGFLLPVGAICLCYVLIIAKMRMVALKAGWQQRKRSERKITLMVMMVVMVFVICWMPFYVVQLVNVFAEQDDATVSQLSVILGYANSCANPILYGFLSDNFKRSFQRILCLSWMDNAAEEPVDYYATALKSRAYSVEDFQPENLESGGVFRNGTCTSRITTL
Chain of Somatostatin receptor type 5 (P35346 whole entry): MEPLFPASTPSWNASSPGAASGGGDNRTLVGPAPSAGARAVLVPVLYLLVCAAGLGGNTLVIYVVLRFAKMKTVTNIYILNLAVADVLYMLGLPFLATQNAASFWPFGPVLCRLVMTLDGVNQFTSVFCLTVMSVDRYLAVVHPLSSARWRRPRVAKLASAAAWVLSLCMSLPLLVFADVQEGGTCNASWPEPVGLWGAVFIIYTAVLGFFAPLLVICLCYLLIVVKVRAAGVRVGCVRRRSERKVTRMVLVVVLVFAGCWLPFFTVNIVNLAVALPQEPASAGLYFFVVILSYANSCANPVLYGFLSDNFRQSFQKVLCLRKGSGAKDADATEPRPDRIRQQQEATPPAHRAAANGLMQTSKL
T1 sequence (P30874 whole entry): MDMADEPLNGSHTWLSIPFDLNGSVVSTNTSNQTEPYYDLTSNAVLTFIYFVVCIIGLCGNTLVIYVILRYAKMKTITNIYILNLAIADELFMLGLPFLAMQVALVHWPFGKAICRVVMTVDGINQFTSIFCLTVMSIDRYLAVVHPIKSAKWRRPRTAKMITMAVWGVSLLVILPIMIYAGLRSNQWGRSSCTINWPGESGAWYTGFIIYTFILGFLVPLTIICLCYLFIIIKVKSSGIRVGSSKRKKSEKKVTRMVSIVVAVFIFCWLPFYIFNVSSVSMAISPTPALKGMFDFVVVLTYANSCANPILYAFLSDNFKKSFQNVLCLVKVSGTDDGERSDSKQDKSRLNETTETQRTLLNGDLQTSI
Chain of Somatostatin receptor type 4 (P31391 whole entry): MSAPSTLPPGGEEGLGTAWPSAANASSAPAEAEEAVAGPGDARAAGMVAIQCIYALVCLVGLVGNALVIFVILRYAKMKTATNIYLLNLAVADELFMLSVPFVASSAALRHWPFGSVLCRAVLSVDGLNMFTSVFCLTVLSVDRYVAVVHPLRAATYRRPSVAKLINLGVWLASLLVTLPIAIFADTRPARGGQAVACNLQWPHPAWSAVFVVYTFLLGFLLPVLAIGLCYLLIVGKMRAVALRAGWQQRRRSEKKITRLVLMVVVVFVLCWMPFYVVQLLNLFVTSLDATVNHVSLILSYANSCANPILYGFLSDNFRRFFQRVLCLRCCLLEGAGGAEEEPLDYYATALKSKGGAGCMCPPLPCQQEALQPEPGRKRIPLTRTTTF

Compound | IC50 [1] [nM] | IC50 [2] [nM] | IC50 [3] [nM] | Activity [4] | IC50 [5] [nM] | IC50 [6] [nM]
C[C@H](NC(=O)CN1CCN(CC(=O)O)CCN(CC(=O)O)CCN(CC(=O)O)CC1)C(=O)NCC(=O)N[C@H]1CSSC[C@H](C(=O)O)NC(=O)[C@H](CO)NC(=O)[C@H]([C@@H](C)O)NC(=O)[C@H](Cc2ccccc2)NC(=O)[C@H]([C@@H](C)O)NC(=O)[C@H](CCCCN)NC(=O)[C@@H](Cc2c[nH]c3ccccc23)NC(=O)[C@H](Cc2ccccc2)NC(=O)[C@H](Cc2ccccc2)NC(=O)[C@H](CC(N)=O)NC(=O)[C@H](CCCNC(=N)N)NC1=O | 1.6 | 25 | 38 | Active | 2.8 | 16
CCCC[C@H](NC(=O)CNC(=O)[C@H](C)NC(=O)CN1CCN(CC(=O)O)CCN(CC(=O)O)CCN(CC(=O)O)CC1)C(=O)N[C@@H](CCCCN)C(=O)N[C@H]1CSSC[C@@H](C(=O)N[C@@H](CO)C(=O)NCC(=O)O)NC(=O)[C@H](Cc2ccccc2)NC(=O)[C@H]([C@@H](C)O)NC(=O)[C@H](CCCCN)NC(=O)[C@@H](Cc2c[nH]c3ccccc23)NC(=O)[C@H](Cc2ccccc2)NC(=O)[C@H](Cc2ccccc2)NC1=O | 11 | 50 | 33 | Active | 4 | 16
CCCC[C@H](NC(=O)CNC(=O)[C@H](C)NC(=O)CN1CCN(CC(=O)O)CCN(CC(=O)O)CCN(CC(=O)O)CC1)C(=O)N[C@@H](CCCCN)C(=O)N[C@@H](CC(N)=O)C(=O)N[C@H]1CSSC[C@@H](C(=O)N[C@H](C(=O)N[C@@H](CO)C(=O)NCC(=O)O)[C@@H](C)O)NC(=O)[C@H]([C@@H](C)O)NC(=O)[C@H](CCCCN)NC(=O)[C@@H](Cc2c[nH]c3ccccc23)NC(=O)[C@H](Cc2ccc(O)cc2)NC1=O | 946 | > 1000 | > 1000 | inactive | > 1000 | > 1000
CCCC[C@H](NC(=O)CNC(=O)[C@H](C)NC(=O)CN1CCN(CC(=O)O)CCN(CC(=O)O)CCN(CC(=O)O)CC1)C(=O)N[C@@H](CCCCN)C(=O)N[C@@H](CC(N)=O)C(=O)N[C@H]1CSSC[C@@H](C(=O)N[C@H](C(=O)N[C@@H](CO)C(=O)NCC(=O)O)[C@@H](C)O)NC(=O)[C@H]([C@@H](C)O)NC(=O)[C@H](CCCCN)NC(=O)[C@@H](Cc2c[nH]c3ccccc23)NC(=O)[C@H](Cc2ccccc2)NC1=O | > 1000 | > 1000 | > 1000 | inactive | > 1000 | > 1000
CCCC[C@H](NC(=O)CNC(=O)[C@H](C)NC(=O)CN1CCN(CC(=O)O)CCN(CC(=O)O)CCN(CC(=O)O)CC1)C(=O)N[C@@H](CCCCN)C(=O)N[C@@H]1CSSC[C@@H](C(=O)N[C@@H](CO)C(=O)NCC(=O)O)NC(=O)[C@H](Cc2ccccc2)NC(=O)[C@H]([C@@H](C)O)NC(=O)[C@H](CCCCN)NC(=O)[C@@H](Cc2c[nH]c3ccccc23)NC(=O)[C@H](Cc2ccccc2)NC(=O)[C@H](Cc2ccccc2)NC1=O | 50 | 37 | 18 | inactive | 5.4 | 98
C[C@@H](O)[C@@H]1NC(=O)[C@H](CCCCN)NC(=O)[C@@H](Cc2c[nH]c3ccccc23)NC(=O)[C@H](Cc2ccccc2)NC(=O)[C@H](Cc2ccccc2)NC(=O)[C@@H](NC(=O)CNC(=O)COCCOCCNC(=O)CN2CCN(CC(=O)O)CCN(CC(=O)O)CCN(CC(=O)O)CC2)CSSC[C@@H](C(=O)O)NC(=O)[C@H](CO)NC(=O)[C@H](Cc2ccccc2)NC1=O | 1 | 58 | 795 | Active | 1.2 | 18
C[C@@H](O)[C@@H]1NC(=O)[C@H](CCCCN)NC(=O)[C@@H](Cc2c[nH]c3ccccc23)NC(=O)[C@H](Cc2ccccc2)NC(=O)[C@H](Cc2ccccc2)NC(=O)[C@@H](NC(=O)[C@H](CCCNC(=N)N)NC(=O)COCCOCCNC(=O)CN2CCN(CC(=O)O)CCN(CC(=O)O)CCN(CC(=O)O)CC2)CSSC[C@@H](C(=O)O)NC(=O)[C@H](CO)NC(=O)[C@H](Cc2ccccc2)NC1=O | 0.76 | 16 | 171 | Active | 0.9 | 24
